What was measured:
FL83B mouse hepatocytes = assay: LC and cholecalciferol treatment of hepatocytes (GCLC-KD, VDR-KD); type: cell-based
Experimental: (§1) Cell culture and treatment: FL83B mouse hepatocytes (ATCC®, Manassas, Va.) were cultured and maintained in F-12K complete medium. Mouse C2C12 myoblasts were cultured at 37° C. in an atmosphere of 5% CO2 in growth medium (GM) consisting of Dulbecco's modified Eagle's medium (DMEM) supplemented with heat-inactivated 10% fetal bovine serum and antibiotics (penicillin and streptomycin). […] The control siRNA, a scrambled nonspecific RNA duplex that shares no sequence homology with any of the genes, was used as a negative control.
(§2) Cells were transiently transfected with 0-100 nM siRNA complex using Lipofectamine™2000 transfection reagent (Invitrogen, Carlsbad, Calif.). […] TNF-α (0-250 μg/mL) was exposed for 6 h to differentiated myotubes.
(§3) Analysis of mRNA expression using quantitative polymerase chain reaction: Total RNA was extracted from cells or tissue using the TRIzol reagent (Life Technologies) following the manufacturer's instructions. The quality and quantity of the extracted RNA were determined on a NanoDrop spectrophotometer (Thermo Scientific). First-strand complementary DNA (cDNA) synthesis was performed using a commercially available High Capacity RNA-To-cDNA kit (Life Technologies) in a final reaction volume of 20 μL. Amplification of cDNA was performed on a 7900HT Real Time polymerase chain reaction (PCR) system (Applied Biosystems). PCR conditions were 2 min at 50° C., 10 min at 95° C., 40 cycles of 95° C. for 15 s, and then 60° C. for 60 s. Glyceraldehyde-3-phosphate dehydrogenase (GAPDH) was used as a housekeeping gene to normalize threshold cycle (CT) values.
(§4) Levels of GSH in plasma, tissues, and cultured cells were determined using HPLC. This assay determines total GSH status. Cell viability was determined using the Alamar Blue method (Alamar Biosciences, Sacramento, Calif.). Oxidative stress was assessed by the quantification of protein carbonyls and MDA using Protein Carbonyl Colorimetric and TBARS Assay Kits, respectively (Cayman Chemical, Ann Arbor, Mich.). Measurements of HbA1c, Complete Blood Count, glucose, and calcium were done at the clinical chemistry laboratories of LSUHSC-Shreveport. Due to limited amount of blood collected from each mouse, we borrowed diluents from the clinical laboratory and diluted the blood before taking it to the clinical laboratory, which reduced the amount of blood required for clinical tests. All chemicals were purchased from Sigma Chemical Co. (St. Louis, Mo.) unless otherwise mentioned.

C2C12 myotubes = assay: LC, TNF-α and 1,25(OH)2VD treatment of myotubes (GCLC-KD, PGC-1α KD); type: cell-based, mouse
Experimental: as §1, §2, §3, §4

[1] = system: mice maintained on a VD-deficient HFD; assay: Supplementation of mice on VD-deficient HFD: blood biomarkers; type: in vivo, mouse; details: VD 67 IU/kg BW, vs OO (vehicle) control
Experimental: Effect of supplementation with VD along with LC on plasma levels of GSH, 25(OH)VD, and IR, and on GSH and VD regulatory genes in liver and on GSH and glucose metabolism genes in muscle: Beginning at 5 weeks of age, male C57BL/6J mice were fed and maintained on a VD-deficient HFD and water ad libitum for 16 weeks. Mice were gavaged daily for the last 8 weeks with saline, olive oil (OO), LC (5 mg/kg BW), VD (67 IU/kg BW), or LC+VD to investigate whether co-supplementation with GSH precursor has a better effect on blood levels of 25(OH)VD compared with levels achieved using VD alone. VD was dissolved in OO and one group of mice was also gavaged with OO (vehicle) alone.
Animal studies. Male C57BL/6J mice (5 weeks old, 20-24 g) were purchased from The Jackson Laboratory and acclimatized in the institutional animal house for 1 week. Mice were divided into various groups by computer-generated randomization and then housed and labeled in individual cages. They were fasted overnight and then weighed. Blood glucose was assessed by tail prick using an Accu-Chek glucometer (Boehringer Mannheim Corp., Indianapolis, Ind.). BW and blood glucose were monitored weekly. Control animals were fed a normal diet (lower in fat), while animals in the HFD group were fed HFD for 16 weeks. For studies with VD-deficient animals, the mice were maintained on a VD-deficient HFD for 16 weeks.
In addition, two groups of mice maintained on the VD-deficient HFD were also simultaneously supplemented by oral gavage with either water or the same dose of the vehicle used for dissolving cholecalciferol (OO) (FIG. 5). The animals were maintained under standard housing conditions at 22° C. 2° C. with 12/12-h light/dark cycles. Normal diet, HFD, and VD-deficient HFD were purchased from The Jackson Laboratory. The amount of food intake was monitored at 12 and 16 weeks into the treatment period to assess consumption. At the end of 16 weeks, the animals were fasted overnight and then euthanized for analysis by exposure to isoflurane (Webster Veterinary Supply, Inc., Devens, Mass.). Blood was collected via heart puncture with a 19^1/2-gauge needle into heparinized Vacutainer tubes. Plasma was isolated after centrifuging the blood in a 4° C. centrifuge at 3000 rpm for 10 min. The livers were perfused with cold saline to free them of residual blood. Liver and gastrocnemius muscle were collected immediately, weighed, quickly diced, and frozen in liquid nitrogen at −80° C.
Dose justification for LC and vitamin D: While lc can be taken as a supplement, it is also formed in the body from methionine. An adult ingests about 500 mg LC from dietary sources, assuming that an average protein intake is 90 g/day and that LC is about 0.6% of total protein. Similarly, taking into account daily dietary intake and diet composition, mice consume 3-5 mg LC/kg BW. The LC/methionine content of protein varies with the source of the protein. The LC dose used in our studies, 5 mg/kg BW, is theoretically a supplementation onefold to twofold that of the LC ordinarily consumed by the mice, which could be considered both modest and safe. […]
25(OH)VD, 1,25(OH)2VD, VDBP, GSH, TNF-α, PTH, insulin, glucose, protein carbonyl, and MDA assays: Plasma levels of 25(OH) vitamin D were determined using an ELISA kit (Calbiotech, Spring Valley, Calif.) and 1,25(OH)2 vitamin D using another ELISA kit (My BioSource, San Diego, Calif.). Plasma VDBP quantification was carried out using a kit purchased from ALPCO Diagnostics (Salem, N.H.). […]

[2] = LC alone, compared with control VDR-KD cells
[3] = oral gavage 8 weeks, LC 5 mg/kg BW

N[C@@H](CS)C(=O)O [LC, l-cysteine]
CYP27A1 gene upregulation (FL83B mouse hepatocytes; [2]): not
VDBP gene expression (FL83B mouse hepatocytes; [2]): upregulation
oxidation of both proteins and lipids (FL83B mouse hepatocytes; LC, GSH-normal and GSH-deficient hepatocytes): reduced
GSH levels (C2C12 myotubes; LC 300 μM, 6 h): increases
TNF-α levels (C2C12 myotubes; LC 300 μM, 6 h, GCLC-normal and GCLC-KD myotubes): decrease

C=C1CC[C@H](O)C/C1=C/C=C1\CCC[C@]2(C)[C@@H]([C@H](C)CCCC(C)C)CC[C@@H]12 [VD, cholecalciferol]
IR (HOMA-IR) in blood [1, 3]: did not show effect
blood HbA1c [1, 3]: did not show effect
blood level of TNF-α [1, 3]: did not show effect
blood level of VDBP ([1]; oral gavage 8 weeks): did not show effect
blood level of GSH ([1]; oral gavage last 8 weeks of 16 weeks VD-deficient HFD, LC 5 mg/kg BW): did not show effect
effect on VD regulatory genes (mRNA) (FL83B mouse hepatocytes; cholecalciferol 10 nM, 22 h): stimulatory effect

C=C1/C(=C\C=C2/CCC[C@]3(C)[C@@H]([C@H](C)CCCC(C)(C)O)CC[C@@H]23)C[C@@H](O)C[C@@H]1O [1,25(OH)2VD, 1alpha,25-dihydroxyvitamin D3]
upregulation of NRF2 and GLUT-4 (C2C12 myotubes; PGC-1α KD myotubes): absent

TNF-α
VDR/PGC-1α/GLUT-4 gene expression (C2C12 myotubes; exogenous TNF-α, 6 h): downregulates

— patent publication US20240122946A9, “METHODS AND COMPOSITIONS FOR TREATING 25-HYDROXYVITAMIN D DEFICIENCY” (Board of Supervisors of Louisiana State University and …, priority 2019, published 2024)
